# Measurements reported in paper PMC10443802, “Targeting a xenobiotic transporter to ameliorate vincristine-induced sensory neuropathy” (JCI Insight, 2023).
# Where “and” joins values, the source holds several entries; their conditions need not be identical. Identical values can stand only once.
# Experiments:
# mOATP1B2 = biological target: T1, mOATP1B2 (Mus musculus, UniProt Q9JJL3); experiment: Inhibition of vincristine uptake in HEK293 cells overexpressing mOATP1B2; type: cell-based; conditions: HEK293 mOATP1B2; inhibitor 15 min pre-treatment
# T1 sequence (Q9JJL3 1-689): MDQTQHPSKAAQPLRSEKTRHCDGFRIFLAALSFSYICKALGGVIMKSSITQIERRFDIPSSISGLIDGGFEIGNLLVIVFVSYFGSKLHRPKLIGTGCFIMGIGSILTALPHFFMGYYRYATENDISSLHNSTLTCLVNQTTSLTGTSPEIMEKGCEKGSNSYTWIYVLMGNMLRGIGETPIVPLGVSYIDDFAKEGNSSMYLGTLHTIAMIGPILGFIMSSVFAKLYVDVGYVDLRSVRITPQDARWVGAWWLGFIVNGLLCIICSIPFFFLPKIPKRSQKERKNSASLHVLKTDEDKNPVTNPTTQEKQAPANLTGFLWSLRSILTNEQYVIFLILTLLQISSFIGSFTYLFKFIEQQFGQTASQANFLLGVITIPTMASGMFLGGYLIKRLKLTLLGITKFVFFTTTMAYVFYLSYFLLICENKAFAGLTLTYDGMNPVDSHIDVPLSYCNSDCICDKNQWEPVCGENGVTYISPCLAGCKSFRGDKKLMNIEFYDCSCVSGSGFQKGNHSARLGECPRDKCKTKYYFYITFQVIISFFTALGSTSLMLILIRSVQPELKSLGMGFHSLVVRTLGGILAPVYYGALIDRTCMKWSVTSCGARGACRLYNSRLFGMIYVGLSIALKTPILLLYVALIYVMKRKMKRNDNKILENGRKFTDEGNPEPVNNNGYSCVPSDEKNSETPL
# OATP1B2 = experiment: Plasma level and DRG/plasma ratio of α-tocopherol in mice (biomarker of OATP1B2 function); type: in vivo, mouse; conditions: WT mice treated with the inhibitor; plasma
# OATP1B-type transporters = conditions: read-out: IC50, inhibition of OATP1B-mediated transport; cited from earlier work
# hOATP2B1 = hOATP2B1 (Homo sapiens, UniProt O94956); experiment: Vincristine uptake screen, HeLa cells overexpressing hOATP2B1; type: in vitro ADME
# Method: (§1) Relative uptake is expressed as percentage change compared with empty vector controls (n = 4–14 per group). […] Human OATP1B1 and OATP1B3 transporter–overexpressed cells were used as positive controls; empty vector controls were used as the negative control. […] Mechanical allodynia (C), thermal hyperalgesia (D), and sciatic nerve maximal action potential amplitudes (E) are expressed as percentage change relative to baseline values (n = 6–8 per group). Statistical analysis was performed using a 2-way ANOVA with Bonferroni’s post hoc test. **P < 0.01, ***P < 0.001, ****P < 0.0001, compared with baseline values. […] Data are shown as mean ± SEM. […]
# (§2) transfected with transporters of interest, including hOAT1, hOAT3, hOAT4, hOATP1A2, hOATP3A1, hOATP4A1, hOATP5A1, hOATP1C1, hOATP1B1, hOATP1B3, hOATP2B1, hOCT1, hOCT2, hOCTN1, hOCTN2, hASBT, hNTCP, hNPT1, hMATE1, hOSTα/β, hPEPT1, hPEPT2, rOatp1a1, rOatp1a4, rOatp1a5, rOatp1b2, rNtcp, rAsbt, rOat1, and rOct1. Cells were transfected with expression plasmid or vector control lacking any insert using Lipofectin reagent (Invitrogen). […] The cellular radioactivity was quantified by liquid scintillation counting as described above. […]
# (§3) Samples were analyzed using real-time quantitative PCR and Taqman Probes (Applied Biosystems). The relative gene expression was determined using the ΔΔCt method, and normalized to the mouse or human housekeeping gene, GAPDH. […]
# rOATP1A1 = rOATP1A1 (Rattus norvegicus, UniProt P46720); experiment: Vincristine uptake screen, HeLa cells overexpressing rOATP1A1; type: in vitro ADME
# Method: as §1, §2, §3
# MOLT4 = experiment: Cytotoxicity of vincristine with or without nilotinib, MTT assay, MOLT4; type: cell-based, human; conditions: vincristine alone, individual replicates
# THP1 = experiment: Cytotoxicity of vincristine with or without nilotinib, MTT assay, THP1; type: cell-based, human; conditions: individual replicates
# mice = experiment: Gross motor performance, automated elevated ladder test; type: in vivo, mouse
# Sequence of hOATP2B1 (O94956 whole entry): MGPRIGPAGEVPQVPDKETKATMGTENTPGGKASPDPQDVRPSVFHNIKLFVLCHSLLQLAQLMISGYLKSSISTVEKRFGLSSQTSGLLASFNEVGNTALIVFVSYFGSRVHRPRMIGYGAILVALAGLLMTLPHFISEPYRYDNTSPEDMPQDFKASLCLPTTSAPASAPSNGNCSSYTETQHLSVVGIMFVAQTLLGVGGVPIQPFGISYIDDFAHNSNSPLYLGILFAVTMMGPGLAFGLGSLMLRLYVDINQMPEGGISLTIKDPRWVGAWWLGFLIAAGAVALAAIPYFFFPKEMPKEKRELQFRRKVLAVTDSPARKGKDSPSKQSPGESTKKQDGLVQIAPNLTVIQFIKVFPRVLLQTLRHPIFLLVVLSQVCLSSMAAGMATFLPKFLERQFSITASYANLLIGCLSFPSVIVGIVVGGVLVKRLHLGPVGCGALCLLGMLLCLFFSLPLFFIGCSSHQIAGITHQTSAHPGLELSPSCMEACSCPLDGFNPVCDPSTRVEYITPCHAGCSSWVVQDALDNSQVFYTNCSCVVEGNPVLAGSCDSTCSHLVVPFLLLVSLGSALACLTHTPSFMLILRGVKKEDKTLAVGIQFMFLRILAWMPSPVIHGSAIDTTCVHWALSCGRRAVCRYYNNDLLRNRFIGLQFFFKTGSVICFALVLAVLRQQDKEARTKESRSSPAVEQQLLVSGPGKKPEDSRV
# Sequence of rOATP1A1 (P46720 whole entry): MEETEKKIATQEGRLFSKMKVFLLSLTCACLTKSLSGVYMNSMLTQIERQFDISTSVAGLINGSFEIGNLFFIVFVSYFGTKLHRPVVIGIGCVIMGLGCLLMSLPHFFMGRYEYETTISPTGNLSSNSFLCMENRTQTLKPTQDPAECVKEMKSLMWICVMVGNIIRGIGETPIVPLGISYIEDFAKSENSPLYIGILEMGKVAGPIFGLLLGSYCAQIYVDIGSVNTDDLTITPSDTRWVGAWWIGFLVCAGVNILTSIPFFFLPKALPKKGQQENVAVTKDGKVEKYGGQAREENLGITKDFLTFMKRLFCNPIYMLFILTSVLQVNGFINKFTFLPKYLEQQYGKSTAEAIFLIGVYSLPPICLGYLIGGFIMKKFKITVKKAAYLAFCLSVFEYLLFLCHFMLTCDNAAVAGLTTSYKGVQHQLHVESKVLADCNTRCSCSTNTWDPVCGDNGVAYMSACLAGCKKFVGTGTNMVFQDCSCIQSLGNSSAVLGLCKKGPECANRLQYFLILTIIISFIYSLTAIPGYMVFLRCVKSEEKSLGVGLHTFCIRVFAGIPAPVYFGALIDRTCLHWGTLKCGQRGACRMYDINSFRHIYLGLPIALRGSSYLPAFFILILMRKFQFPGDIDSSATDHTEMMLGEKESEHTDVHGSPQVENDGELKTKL
SMILES,Vincristine uptake (% of vehicle) (mOATP1B2),"Level of α-tocopherol (% of wild-type baseline), Plasma (OATP1B2)",IC50 (OATP1B-type transporters),Vincristine uptake (% of vector control) (hOATP2B1),Vincristine uptake (% of vector control) (rOATP1A1),"IC50 (MOLT4; Homo sapiens, MOLT-4, MOLT4 cells)",IC50 (MOLT4; MOLT4 cells),"IC50 (THP1; Homo sapiens, THP-1, THP1 cells, vincristine + 1μM Nilotinib)","IC50 (THP1; Homo sapiens, THP-1, THP1 cells, vincristine alone)","IC50 (THP1; THP1 cells, vincristine alone)","Gross motor performance (automated ladder and open field tests) (mice; WT mice or OATP1B2-/- mice, single i.p. dose 1 mg/kg)","Number of missed steps (mice; Wild-type mice, Day 2)"
"Cc1cn(-c2cc(NC(=O)c3ccc(C)c(Nc4nccc(-c5cccnc5)n4)c3)cc(C(F)(F)F)c2)cn1 [Nilotinib, nilotinib]",73.0702 % of vehicle and 58.7366 % of vehicle and 55.2034 % of vehicle and 63.6149 % of vehicle and 58.7604 % of vehicle and 51.7599 % of vehicle,242.352% and 175.541% and 133.994%,~1000 nM,,,,,,,,,
"CC[C@]1(O)C[C@H]2CN(CCc3c([nH]c4ccccc34)[C@@](C(=O)OC)(c3cc4c(cc3OC)N(C=O)[C@H]3[C@@](O)(C(=O)OC)[C@H](OC(C)=O)[C@]5(CC)C=CCN6CC[C@]43[C@@H]65)C2)C1 [Vincristine, vincristine]",,,,113.00 % of vector control and 80.00 % of vector control and 88.00 % of vector control and 105.00 % of vector control and 83.00 % of vector control and 131.00 % of vector control and 125.00 % of vector control and 135.00 % of vector control,102.00 % of vector control and 84.00 % of vector control and 73.00 % of vector control and 95.00 % of vector control and 74.00 % of vector control and 58.00 % of vector control and 71.00 % of vector control and 62.00 % of vector control,6.88 nM,6.2 nM and 9.07 nM and 9.04 nM and 7.56 nM and 10.2 nM and 7.73 nM and 7.86 nM and 6.95 nM,11 nM,15.4 nM,14.4 nM (2×) and 15.4 nM and 15.1 nM and 14.6 nM and 10.5 nM and 10.2 nM and 16.9 nM,did not affect gross motor performance,7.667 and 9.667 and 8.333 and 5.667 and 8 and 10.6667 and 9.333
